ChEMBL document CHEMBL3853276, “Alkaloids from Hippeastrum argentinum and Their Cholinesterase-Inhibitory Activities: An in Vitro and in Silico Study” (J Nat Prod, 2016)

Columns and labels:
[1] = molecular target: Acetylcholinesterase (Electrophorus electricus, UniProt O42275); test: Inhibition of electric eel AChE using ATCI as substrate preincubated for 30 mins followed by substrate addition measured after 5 mins by DTNB-based spectrophotometric analysis
[2] = Selectivity index, ratio of IC50 for electric eel AChE to IC50 for equine serum BuChE
[3] = molecular target: Cholinesterase (Equus caballus, UniProt P81908); test: Inhibition of equine serum BuChE using ATCI as substrate preincubated for 30 mins followed by substrate addition measured after 5 mins by DTNB-based spectrophotometric analysis
Sequence of Cholinesterase (P81908 whole entry): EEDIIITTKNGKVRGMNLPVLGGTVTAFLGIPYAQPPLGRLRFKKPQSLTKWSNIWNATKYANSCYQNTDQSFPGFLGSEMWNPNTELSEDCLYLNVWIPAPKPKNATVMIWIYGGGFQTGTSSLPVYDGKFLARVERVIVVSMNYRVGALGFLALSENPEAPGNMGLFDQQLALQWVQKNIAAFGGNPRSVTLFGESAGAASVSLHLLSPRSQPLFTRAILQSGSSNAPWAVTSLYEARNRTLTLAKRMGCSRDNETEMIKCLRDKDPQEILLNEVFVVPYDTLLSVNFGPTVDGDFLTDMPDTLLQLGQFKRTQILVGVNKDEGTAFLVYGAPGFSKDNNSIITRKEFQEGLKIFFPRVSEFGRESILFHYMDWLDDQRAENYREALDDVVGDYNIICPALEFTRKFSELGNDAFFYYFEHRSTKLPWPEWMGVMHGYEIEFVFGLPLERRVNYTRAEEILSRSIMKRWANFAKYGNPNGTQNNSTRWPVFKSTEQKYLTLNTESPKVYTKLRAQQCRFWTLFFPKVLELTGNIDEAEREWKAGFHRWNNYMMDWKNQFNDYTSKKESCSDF

Sequence of Acetylcholinesterase (O42275 whole entry): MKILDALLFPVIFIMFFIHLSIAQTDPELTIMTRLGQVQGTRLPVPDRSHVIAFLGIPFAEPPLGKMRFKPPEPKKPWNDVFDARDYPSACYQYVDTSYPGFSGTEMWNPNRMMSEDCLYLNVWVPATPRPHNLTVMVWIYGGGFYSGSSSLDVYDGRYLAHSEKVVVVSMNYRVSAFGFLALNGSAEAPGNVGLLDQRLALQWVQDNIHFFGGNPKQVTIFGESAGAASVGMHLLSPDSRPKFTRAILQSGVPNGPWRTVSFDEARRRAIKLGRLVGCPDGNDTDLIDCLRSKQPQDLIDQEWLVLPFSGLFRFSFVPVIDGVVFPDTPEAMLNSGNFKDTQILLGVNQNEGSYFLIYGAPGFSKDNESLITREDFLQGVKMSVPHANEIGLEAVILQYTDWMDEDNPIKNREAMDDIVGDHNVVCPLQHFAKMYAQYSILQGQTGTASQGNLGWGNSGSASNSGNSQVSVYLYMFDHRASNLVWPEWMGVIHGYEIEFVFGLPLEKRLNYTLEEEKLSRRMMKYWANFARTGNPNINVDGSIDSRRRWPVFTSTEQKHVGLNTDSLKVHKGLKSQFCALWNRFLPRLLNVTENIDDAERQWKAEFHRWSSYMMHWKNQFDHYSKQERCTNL

CN1CC[C@@H]2C[C@H](O)[C@H]3OC(=O)c4c(cc5c(c4O)OCO5)[C@H]3[C@@H]21
IC50 [1]: 114 µM | Ratio IC50 [2]: 1.69 | IC50 [3]: 67.3 µM

CO[C@H]1[C@H]2C(=CC[C@@H]1O)[C@H]1CN2Cc2cc3c(cc21)OCO3
IC50 [1]: > 200 µM | IC50 [3]: > 200 µM

O[C@H]1C=C2[C@H]3CN(Cc4cc5c(cc43)OCO5)[C@H]2C[C@@H]1O
IC50 [1]: > 200 µM | IC50 [3]: > 200 µM

O[C@H]1[C@H]2c3cc4c(cc3CN3CCC(=C[C@@H]1O)[C@H]23)OCO4 [LYCORINE]
IC50 [3]: > 200 µM

CO[C@H]1C=C2[C@H]3C[N@@](Cc4cc5c(cc43)OCO5)[C@H]2C[C@@H]1O [MONTANINE]
IC50 [1]: > 200 µM | IC50 [3]: > 200 µM
